Data reported in patent US20220323443A1, “COMBINATION THERAPY FOR CANCER TREATMENT” (TAKEDA PHARMACEUTICAL COMPANY LIMITED, priority 2019, published 2022).
“Also recorded” adds a separate entry of the source.

Assays:
[1] = system: B16F10 (Melanoma); assay: In vivo combination study, syngeneic mouse tumor isograft model; settings: note to Table 9
[2] = system: Twelve cancer cell lines (A549, BxPC3, Calu-1, COLO205, KYSE140, KYSE150, KYSE520, KYSE70, MIA PaCa-2, NCI-H292, PANC1, and RKO); assay: CRISPR-Cas9 knock-out screening for genes sensitizing to compound 1; format: cell-based; settings: hit genes: ES<0 and p-value <0.05, control vs low dose compound 1, in more than three cancer cell lines
[3] = system: repair of IR-induced DSBs in HeLa cells; assay: 53BP1 foci assay of irradiation-induced DNA double-strand breaks; format: cell-based, human
Protocol: Human cervical adenocarcinoma HeLa cells were treated with or without Compound 1 treatment at 300 nM, followed by irradiation (IR) treatment at 4 Gy using an X-ray irradiator (MBR-1520R-3, Hitachi Power Solutions Co., Ltd., Ibaraki). Eight or forty-eight hours after IR treatment, the cells were fixed with 4% paraformaldehyde for the following immunofluorescent experiments. Foci formation of 53BP1 was used as an index of IR-induced DSBs. After permeabilization, the cells were incubated with anti-53BP1 antibody (2 μg/ml) for 60 min at 37° C., and then incubated with Alexa-594-conjugated secondary antibody for 30 min at 37° C. Images were captured with an Axiovert 200M microscope (Carl Zeiss).

[4] = system: homologous recombination (HR) repair in 293T cells; assay: Homologous recombination (HR) repair assay, DR-GFP / I-SceI reporter, flow cytometry; format: cell-based, human; settings: 300 nM Compound 1, 72 hours after transfection
Protocol: The efficiency of homologous recombination (HR) was assessed using an I-SceI expression plasmid (I-SceI) and an I-SceI repair reporter plasmid (DR-GFP) composed of two differentially mutated GFP genes, one of which contained a unique I-SceI restriction site (FIG. 1A). The assay works through gene conversion repair of a double strand break caused by I-SceI digestion. DR-GFP plasmids repaired by homologous recombination express GFP. Human embryonic kidney 293T cells were transfected with either 5 μg of DR-GFP plus 10 μg of I-SceI in presence (300 nM) or absence of Compound 1. Seventy-two hours after transfection, the cells were fixed with 4% paraformaldehyde for 20 min at room temperature, and the number of GFP-expressing cells was assessed by flow cytometry (FIGS. 1B and 1C).

[5] = system: J558 mouse plasmacytoma tumors; assay: In vivo combination study, syngeneic mouse tumor isograft model; settings: note to Table 9
Protocol: (§1) To investigate in vivo antitumor activity of Compound 1 in combination with other agents, tests using Cell Derived Xenograft (CDX), Patient Derived Xenograft (PDX) and Syngeneic mouse tumor isograft model were conducted. Cells or Patient Derived Tumors were inoculated by one method of the following two methods (Method A and B) as shown Table 7.
(§2) Method A; Cells were maintained in either immune deficient nude mice or immune competent mice by subcutaneous inoculation of tumor cells at various concentrations into respected mice. Method B: Patient Derived Tumor s were maintained in nude mice by subcutaneous inoculation of tumor pieces (approx. 2×2×2 mm) into nude mice. Mice with tumor size of approximately 50 mm^3 (e.g., 40-75 mm^3) for syngeneic mouse studies or 200 mm^3 (e.g., 110-270 mm^3) for xenograft studies were randomly assigned to dose groups on the day (Day 0) before start date of dosing.
(§3) Compound 1 (crystalline form I) was suspended in 0.5 w/v % methylcellulose and administered orally to mice. Antibodies which administered in the experiment were described in Table 8.
(§4) Tumor size was measured by caliper and tumor volume was estimated using the equation V=(LW^2)/2, where L and W are tumor length and width, respectively and reported in cubic millimeters.
(§5) These values were compared across treatment groups to assess whether the differences in the trends over time were statistically significant. To compare pairs of treatment groups, the following mixed-effects linear regression model was fit to the data using the maximum likelihood method:
(§6) For synergy analyses, the observed differences in the log tumor values were used to calculate AUC values for each animal. In instances when an animal in a treatment group was removed from the study, the last observed tumor value was carried forward through all subsequent time points. The AUC for the control, or vehicle, group was calculated using the predicted values from the pairwise models described above. We defined a measure of synergy as follows:
(§7) where Ak and Bk are the k^th animal in the individual treatment groups and ABk is the k^th animal in combination treatment group. AUCcd is the model-predicted AUC for the control group and was treated as a constant with no variability. The standard error of the synergy score was calculated as the square root of the sum of squared standard errors across groups A, B, and AB. The degrees of freedom were estimated using the Welch-Satterthwaite equation. A hypothesis test was performed to determine if the synergy score differed from 0. P values were calculated by dividing the synergy score by its standard error and tested against a t-distribution (two-tailed) with the above-calculated degrees of freedom.
(§8) The effect was classified into four different categories. It was considered synergistic if the synergy score was less than 0 and additive if the synergy score wasn't statistically different from 0. If the synergy score was greater than zero, but the mean AUC for the combination was lower than the lowest mean AUC among the two single agent treatments, then the combination was sub-additive. If the synergy score was greater than zero, and the mean AUC for the combination was greater than the mean AUC for at least one of the single agent treatments, then the combination was antagonistic.

[6] = system: H22 (Hepatoma); assay: as above; settings: note to Table 9; by note order: Anti-mCTLA-4 study in H22 (55 mm^3)
Protocol: as §1, §2, §3, §4, §5, §6, §7, §8

[7] = system: Panc02 (Pancreatic); assay: as above; settings: note to Table 9
Protocol: as §1, §2, §3, §4, §5, §6, §7, §8

[8] = system: JC (Breast); assay: as above; settings: note to Table 9
Protocol: as §1, §2, §3, §4, §5, §6, §7, §8

[9] = system: CT26 Mouse syngeneic colon tumor model; assay: as above; settings: note to Table 9

Cc1[nH]ncc1-c1cc2nc([C@@H]3CC4CCN3CC4)[nH]c(=O)c2s1 [Compound 1, 2-[(2S)-1-azabicyclo[2.2.2]oct-2-yl]-6-(3-methyl-1H-pyrazol-4-yl)thieno[3,2-d]pyrimidin-4(3H)-one]
CR per group ([1]; by note order: Anti-mPD-1 study in B16F10 (67 mm^3)): 0 CR in PD-1 group and 0 CR in Compound 1 group, and 0 CR in Compound 1/PD-1 combo group
CR per group ([1]; by note order: NKTR-214 + anti-mPD-1 study in B16F10 (67 mm^3)): 0 CR in NKTR-214 + PD-1 group, and 0 CR in Compound 1 group, and 0 CR in Compound 1/NKTR-214/PD-1 triple combo group
CR per group ([1]; by note order: NKTR-214 study in B16F10 (67 mm^3)): no CR
sensitivity of cancer cells with mutation or deletion of at least one sensitizing hit gene [2]: more sensitive
repair of IR-induced DSBs ([3]; 300 nM Compound 1 + IR 4 Gy, HeLa cells): delays repair of IR-induced DSBs; also recorded: delays repair of irradiation induced double-strand breaks (DSBs)
53BP1 foci-positive cells (≥10 foci/cell) ([3]; co-treated with IR 4 Gy and Compound 1 300 nM, 48 h after IR treatment, HeLa): still observed with high frequency
HR repair activity (GFP-expressing cells) [4]: suppresses HR repair activity
CR per group ([5]; by note order: Anti-mCTLA-4 study in J558 (30 mm^3)): 2
CR per group ([5]; by note order: Anti-mPD-1 study in J558 (30 mm^3)): 2
CR per group ([5]; by note order: Anti-mPD-L1 study in J558 (30 mm^3)): 2
CR per group [6]: 0
CR per group ([7]; by note order: Anti-mPD-1 study in Panc02 (75 mm^3)): 0 CR in PD-1 group and 0 CR in Compound 1 group, and 0 CR in Compound 1/PD-1 combo group
CR per group ([7]; by note order: Gemcitabine study in Panc02 (75 mm^3)): 0 CR in Gemcitabine group and 0 CR in Compound 1 group, and 0 CR in Compound 1/Gemcitabine combo group
CR per group ([8]; by note order: Anti-mCTLA-4 study in JC (60 mm^3)): 0 CR in CTLA-4 group and 0 CR in Compound 1 group, and 0 CR in Compound 1/CTLA-4 combo group
CR per group ([8]; by note order: Anti-mPD-1 study in JC (60 mm^3)): 0 CR in PD-1 group and 0 CR in Compound 1 group, and 0 CR in Compound 1/PD-1 combo group
CR per group ([9]; by note order: Anti-mCTLA-4 study in CT26 (40 mm^3)): 0
CR per group ([9]; by note order: Anti-mCTLA-4 study in CT26 (50 mm^3)): 0
CR per group ([9]; by note order: Anti-mPD-1 study in CT26 (40 mm^3)): 0
CR per group ([9]; by note order: Anti-mPD-1 study in CT26 (50 mm^3)): 0
CR per group ([9]; by note order: Anti-mPD-1 study in CT26 (64 mm^3)): no CR
CR per group ([9]; by note order: NKTR-214 + anti-mPD-1 study in CT26 (64 mm^3)): no CR
CR per group ([9]; by note order: NKTR-214 study in CT26 (64 mm^3)): no CR
